Laboratory results as given in PubChem BioAssay AID330 (DTP/NCI, 2004).
“And” between values parts separate entries of the source, which are not always exact repeats. Equal values may be shown once. Inconclusive results and toxic doses are left out. How the source made its calls: active means survival T/C of 150% or more; inactive means T/C below 125% in these data.

Test system: P388 leukemia ip, CD2F1 mice, survival T/C
Assay: NCI In Vivo Anticancer Drug Screen. Data for tumor model P388 Leukemia (intraperitoneal) in CD2F1 (CDF1) mice
Details: endpoint: median survival time, higher = longer survival
Method in brief: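 Mice carrying the transplanted tumor received test compound or vehicle. Survival was recorded in each group, and the value is the treated-group measurement divided by that of the vehicle-treated control group.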

[1] = dose: 60.0 mg/kg/injection, schedule: Q01DX005 (ip), vehicle: Klucel (hydroxypropylcellulose) (HPC)
[2] = dose: 120.0 mg/kg/injection, schedule: Q01DX005 (ip), vehicle: Klucel (hydroxypropylcellulose) (HPC)
[3] = dose: 240.0 mg/kg/injection, schedule: Q01DX005 (ip), vehicle: Klucel (hydroxypropylcellulose) (HPC)

Measured: T/C

Cc1ccc(N(CN2C(=O)CCC2=O)CS(=O)(=O)c2ccc(C)cc2)cc1
inactive: [1] 97 % of control | [2] 98 % of control and 93 % of control | [3] 93 % of control and 96 % of control

O=c1[nH]cc(CCCc2ccccc2)c(=O)[nH]1
inactive: [1] 102 % of control | [2] 95 % of control | [3] 95 % of control

CCC1C(OC)=CC(CC)(CO)C=C1OC (stereo not given)
inactive: dose: 50.0 mg/kg/injection, schedule: Q01DX005 (ip), vehicle: saline with Tween-80 95 % of control | dose: 100.0 mg/kg/injection, schedule: Q01DX005 (ip), vehicle: saline with Tween-80 95 % of control | dose: 200.0 mg/kg/injection, schedule: Q01DX005 (ip), vehicle: saline with Tween-80 100 % of control

COc1ccc(/C=N\NC(=O)CNC(=O)Nc2cccc(C(F)(F)F)c2)cc1OC
inactive: dose: 3.13 mg/kg/injection, schedule: Q01DX009 (ip), vehicle: saline with Tween-80 112 % of control | dose: 6.25 mg/kg/injection, schedule: Q01DX009 (ip), vehicle: saline with Tween-80 108 % of control | dose: 12.5 mg/kg/injection, schedule: Q01DX009 (ip), vehicle: saline with Tween-80 91 % of control

Cc1ccc(N=Nc2c(O)n(-c3ccccc3C)c(=S)n(-c3ccccc3Cl)c2=O)cc1
inactive: dose: 100.0 mg/kg/injection, schedule: Q01DX001 (ip), vehicle: Klucel (hydroxypropylcellulose) (HPC) 101 % of control | dose: 200.0 mg/kg/injection, schedule: Q01DX001 (ip), vehicle: Klucel (hydroxypropylcellulose) (HPC) 103 % of control | dose: 400.0 mg/kg/injection, schedule: Q01DX001 (ip), vehicle: Klucel (hydroxypropylcellulose) (HPC) 104 % of control

CN(C)C(=S)Oc1cc(-c2c(OC(=S)N(C)C)ccc3ccccc23)c2ccccc2c1
inactive: dose: 100.0 mg/kg/injection, schedule: Q04DX002 (ip), vehicle: saline with Tween-80 105 % of control | dose: 200.0 mg/kg/injection, schedule: Q04DX002 (ip), vehicle: saline with Tween-80 102 % of control | dose: 400.0 mg/kg/injection, schedule: Q04DX002 (ip), vehicle: saline with Tween-80 96 % of control

CC1CC(C)(C)C2=NCCN21 (stereo not given)
inactive: dose: 6.25 mg/kg/injection, schedule: Q01DX009 (ip), vehicle: water 105 % of control | dose: 12.5 mg/kg/injection, schedule: Q01DX009 (ip), vehicle: water 100 % of control | dose: 15.0 mg/kg/injection, schedule: Q01DX005 (ip), vehicle: saline 106 % of control | dose: 25.0 mg/kg/injection, schedule: Q01DX009 (ip), vehicle: water 107 % of control | dose: 30.0 mg/kg/injection, schedule: Q01DX005 (ip), vehicle: saline 106 % of control | dose: 50.0 mg/kg/injection, schedule: Q01DX009 (ip), vehicle: water 107 % of control | dose: 60.0 mg/kg/injection, schedule: Q01DX005 (ip), vehicle: saline 99 % of control and 100 % of control
